This assay concerns P388 leukemia ip, CD2F1 mice, survival T/C. Kind of assay: NCI In Vivo Anticancer Drug Screen. Data for tumor model P388 Leukemia (intraperitoneal) in CD2F1 (CDF1) mice. The following applies: endpoint: median survival time, higher = longer survival. In outline: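 Mice carrying the transplanted tumor received test compound or vehicle. Survival was recorded in each group, and the value is the treated-group measurement divided by that of the vehicle-treated control group.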

Setting [1] is: dose: 50.0 mg/kg/injection, schedule: Q01DX009 (ip), vehicle: saline with Tween-80.
The mark [2] stands for this setting: dose: 100.0 mg/kg/injection, schedule: Q01DX009 (ip), vehicle: saline with Tween-80.
Where [3] appears, read: dose: 200.0 mg/kg/injection, schedule: Q01DX009 (ip), vehicle: saline with Tween-80.
Where [4] appears, read: dose: 50.0 mg/kg/injection, schedule: Q01DX005 (ip), vehicle: saline.
The mark [5] stands for this setting: dose: 200.0 mg/kg/injection, schedule: Q01DX009 (ip), vehicle: saline.
Where [6] appears, read: dose: 100.0 mg/kg/injection, schedule: Q04DX003 (ip), vehicle: saline.
The mark [7] stands for this setting: dose: 200.0 mg/kg/injection, schedule: Q04DX003 (ip), vehicle: saline.
[8] abbreviates: dose: 400.0 mg/kg/injection, schedule: Q04DX003 (ip), vehicle: saline.
Where [9] appears, read: dose: 6.25 mg/kg/injection, schedule: Q01DX009 (ip), vehicle: saline.
Setting [10] is: dose: 25.0 mg/kg/injection, schedule: Q01DX009 (ip), vehicle: saline.

“And” between values parts separate entries of the source, which are not always exact repeats. Equal entries are not always repeated. Toxic doses and inconclusive results are not listed.

Regarding `CC(=O)C1(c2ccccc2)CCN(c2c3ccccc3nc3ccccc23)CC1`, the T/C is, setting by setting: (dose: 100.0 mg/kg/injection, schedule: Q04DX003 (ip), vehicle: Klucel (hydroxypropylcellulose) (HPC)) 108 % of control; (dose: 200.0 mg/kg/injection, schedule: Q04DX003 (ip), vehicle: Klucel (hydroxypropylcellulose) (HPC)) 111 % of control.

Regarding `Brc1c(Br)c(Br)c2n[nH]nc2c1Br`, the T/C (dose: 25.0 mg/kg/injection, schedule: Q01DX009 (ip), vehicle: saline with Tween-80) was 103 % of control; the T/C under setting [1] is 106 % of control; the T/C under setting [2] was 103 % of control; the T/C under setting [3] was 115 % of control.

On to `CC(C)(C)OC(=O)NC(CCC(N)=O)C(=O)O` (stereo unspecified), for which the T/C reads like this: under setting [4], 104 % of control; (dose: 100.0 mg/kg/injection, schedule: Q01DX005 (ip), vehicle: saline) 104 % of control; (dose: 200.0 mg/kg/injection, schedule: Q01DX005 (ip), vehicle: saline) 103 % of control.

Turning to `CCOC(=O)C(N)CSC(=O)NC` (stereo unspecified), the T/C is 118 % of control (dose: 10.4 mg/kg/injection, schedule: Q03HX024 (ip), vehicle: saline); 124 % of control (dose: 20.8 mg/kg/injection, schedule: Q03HX024 (ip), vehicle: saline); 108 % of control (dose: 25.0 mg/kg/injection, schedule: Q01DX005 (ip), vehicle: saline); 119 % of control (dose: 27.7 mg/kg/injection, schedule: Q01DX009 (ip), vehicle: saline); 109 % of control (dose: 27.7 mg/kg/injection, schedule: Q01DX009 (oral), vehicle: saline); 111 % of control (dose: 31.2 mg/kg/injection, schedule: Q03HX008 (ip), vehicle: saline). The T/C is 112 % of control and 114 % of control (2×) under setting [4]; 101 % of control (dose: 50.0 mg/kg/injection, schedule: Q01DX005 (iv), vehicle: saline); 111 % of control (dose: 55.5 mg/kg/injection, schedule: Q01DX009 (oral), vehicle: saline); 120 % of control (dose: 62.5 mg/kg/injection, schedule: Q03HX008 (ip), vehicle: saline); 162 % of control (dose: 83.3 mg/kg/injection, schedule: Q03HX024 (ip), vehicle: saline); 113 % of control (dose: 83.3 mg/kg/injection, schedule: Q04DX003 (ip), vehicle: saline). Further, the T/C is, setting by setting: (dose: 100.0 mg/kg/injection, schedule: Q01DX005 (iv), vehicle: saline) 106 % of control; (dose: 111.1 mg/kg/injection, schedule: Q01DX009 (oral), vehicle: saline) 120 % of control; (dose: 133.0 mg/kg/injection, schedule: Q01DX009 (ip), vehicle: saline) 152 % of control; (dose: 166.6 mg/kg/injection, schedule: Q03HX024 (ip), vehicle: saline) 187 % of control; (dose: 166.6 mg/kg/injection, schedule: Q04DX003 (ip), vehicle: saline) 120 % of control; (dose: 200.0 mg/kg/injection, schedule: Q01DX005 (iv), vehicle: saline) 118 % of control. For the same compound, the T/C by setting is: under setting [5], 154 % of control; (dose: 222.2 mg/kg/injection, schedule: Q01DX009 (ip), vehicle: saline) 156 % of control; (dose: 250.0 mg/kg/injection, schedule: Q01DX001 (ip), vehicle: saline) 114 % of control; (dose: 250.0 mg/kg/injection, schedule: Q01DX001 (iv), vehicle: saline) 92 % of control; (dose: 300.0 mg/kg/injection, schedule: Q01DX009 (ip), vehicle: saline) 170 % of control; (dose: 444.4 mg/kg/injection, schedule: Q01DX009 (ip), vehicle: saline) 169 % of control. The T/C by setting is: (dose: 444.4 mg/kg/injection, schedule: Q01DX009 (oral), vehicle: saline) 155 % of control; (dose: 500.0 mg/kg/injection, schedule: Q01DX001 (ip), vehicle: saline) 117 % of control; (dose: 500.0 mg/kg/injection, schedule: Q01DX001 (iv), vehicle: saline) 102 % of control; (dose: 666.6 mg/kg/injection, schedule: Q04DX003 (ip), vehicle: saline) 153 % of control; (dose: 888.8 mg/kg/injection, schedule: Q01DX009 (oral), vehicle: saline) 195 % of control; (dose: 1000.0 mg/kg/injection, schedule: Q01DX001 (ip), vehicle: saline) 119 % of control.

Consider `Cn1c(=O)c2c(nc(/N=C/c3ccncc3)n2C)n(C)c1=O`, for which the T/C by setting is: under setting [6], 101 % of control; under setting [7], 101 % of control; under setting [8], 101 % of control.

Consider `O=c1[nH]c(CN2CCOCC2)ncc1C1CCCCC1`, for which the T/C by setting is: under setting [1], 97 % of control; under setting [2], 100 % of control; under setting [3], 95 % of control.

Take `O=C(CBr)Nc1c(Cl)cc(Br)cc1Br`: the T/C was 113 % of control under setting [9]; 95 % of control (dose: 12.5 mg/kg/injection, schedule: Q01DX009 (ip), vehicle: saline); 98 % of control under setting [10]; 104 % of control under setting [2]; 113 % of control under setting [3].

Regarding `N#Cc1cc(C23CCC(C2)N3)ccc1[N+](=O)[O-]` (stereo unspecified), the T/C by setting is: under setting [6], 105 % of control; under setting [7], 91 % of control; under setting [8], 92 % of control.

Take `CC(C)([NH-])CO.CC(C)([NH-])CO.[Cl][Cd][Cl]`: the T/C reads like this: (dose: 3.13 mg/kg/injection, schedule: Q01DX009 (ip), vehicle: saline) 91 % of control; under setting [9], 91 % of control.

Turning to `CC1=NOC(=O)/C1=C/c1ccc(Cl)c(Cl)c1`, the T/C (dose: 50.0 mg/kg/injection, schedule: Q01DX005 (ip), vehicle: saline with Tween-80) was 112 % of control and the T/C (dose: 100.0 mg/kg/injection, schedule: Q01DX005 (ip), vehicle: saline with Tween-80) was 114 % of control.

On to `O=C1CCSC(=S)N1c1ccc(Cl)c(C(F)(F)F)c1`, for which the T/C was 101 % of control and 91 % of control under setting [10]; 100 % of control and 106 % of control and 107 % of control (dose: 50.0 mg/kg/injection, schedule: Q01DX009 (ip), vehicle: saline); 110 % of control and 118 % of control and 98 % of control (dose: 100.0 mg/kg/injection, schedule: Q01DX009 (ip), vehicle: saline); 100 % of control and 119 % of control under setting [5].

With `CCOC(=O)C1=NN(c2ccccc2)CC1C(=O)OC` (stereo unspecified), the T/C (dose: 50.0 mg/kg/injection, schedule: Q04DX002 (ip), vehicle: suspension in saline) is 103 % of control; the T/C (dose: 100.0 mg/kg/injection, schedule: Q04DX002 (ip), vehicle: suspension in saline) is 100 % of control; the T/C (dose: 200.0 mg/kg/injection, schedule: Q04DX002 (ip), vehicle: suspension in saline) is 98 % of control.

As for `Cn1nnn(Cc2ccccc2)/c1=N/C(=S)Nc1ccccc1`, the T/C reads like this: (dose: 100.0 mg/kg/injection, schedule: Q01DX001 (ip), vehicle: Klucel (hydroxypropylcellulose) (HPC)) 99 % of control; (dose: 200.0 mg/kg/injection, schedule: Q01DX001 (ip), vehicle: Klucel (hydroxypropylcellulose) (HPC)) 95 % of control; (dose: 400.0 mg/kg/injection, schedule: Q01DX001 (ip), vehicle: Klucel (hydroxypropylcellulose) (HPC)) 86 % of control.

`COC(=O)c1nnn(-c2cc(Cl)ccc2Cl)c1C(=O)c1ccc(Cl)c(Cl)c1`: the T/C is, setting by setting: (dose: 60.0 mg/kg/injection, schedule: Q01DX005 (ip), vehicle: saline with Tween-80) 99 % of control; (dose: 120.0 mg/kg/injection, schedule: Q01DX005 (ip), vehicle: saline with Tween-80) 96 % of control; (dose: 240.0 mg/kg/injection, schedule: Q01DX005 (ip), vehicle: saline with Tween-80) 87 % of control.

`CCOc1ccc(-c2nn(C(=O)c3ccccc3)c(-c3ccccc3)c2N=Nc2ccc(S(=O)(=O)Nc3nnc(C)s3)cc2)cc1`: the T/C by setting is: (dose: 100.0 mg/kg/injection, schedule: Q04DX002 (ip), vehicle: saline with Tween-80) 93 % of control; (dose: 200.0 mg/kg/injection, schedule: Q04DX002 (ip), vehicle: saline with Tween-80) 89 % of control; (dose: 400.0 mg/kg/injection, schedule: Q04DX002 (ip), vehicle: saline with Tween-80) 93 % of control.

In the case of `Cc1ccc(C(=O)/C([S-])=C(\Nc2cccc(Cl)c2)[n+]2ccccc2)cc1`, the T/C (dose: 50.0 mg/kg/injection, schedule: Q01DX005 (ip), vehicle: Klucel (hydroxypropylcellulose) (HPC)) is 100 % of control; the T/C (dose: 100.0 mg/kg/injection, schedule: Q01DX005 (ip), vehicle: Klucel (hydroxypropylcellulose) (HPC)) is 98 % of control; the T/C (dose: 200.0 mg/kg/injection, schedule: Q01DX005 (ip), vehicle: Klucel (hydroxypropylcellulose) (HPC)) is 93 % of control.

For the origin of these results see PubChem BioAssay AID330 (DTP/NCI, 2004).
